Results: US20230131966A1, “FUNGICIDAL AMIDES” (FMC Corporation, priority 2020, published 2023)

Key:
Type in all cases: in vivo
Phytophthora infestans = assay: whole plant or invertebrate; conditions: tomato seedlings; for Test F disease control rating (100 = 100% disease control, 0 = no disease control): rate 250 ppm, relative to the controls
Zymoseptoria tritici = assay: Test C: wheat leaf blotch control on wheat seedlings; conditions: for Test C disease control rating (100 = 100% disease control, 0 = no disease control): rate 250 ppm, relative to the controls
Botrytis cinerea = assay: Test E: tomato Botrytis control on tomato seedlings; conditions: for Test E disease control rating (100 = 100% disease control, 0 = no disease control): rate 250 ppm, relative to the controls
[1] = system: Puccinia recondita f. sp. tritici; assay: Test B: wheat leaf rust control on wheat seedlings; conditions: for Test B disease control rating (100 = 100% disease control, 0 = no disease control): rate 250 ppm, relative to the controls
[2] = system: Erysiphe graminis f. sp. tritici; assay: Test G: wheat powdery mildew control on wheat seedlings; conditions: for Test G disease control rating (100 = 100% disease control, 0 = no disease control): rate 250 ppm, relative to the controls
Plasmopara viticola = assay: Test D: grape downy mildew control on grape seedlings; conditions: for Test D disease control rating (100 = 100% disease control, 0 = no disease control): rate 250 ppm, relative to the controls
Phakopsora pachyrhizi = assay: Test A: Asian soybean rust control on soybean seedlings; conditions: for Test A disease control rating (100 = 100% disease control, 0 = no disease control): rate 250 ppm, relative to the controls
[3] = 250 ppm, 100 = 100% disease control, 0 = no control
[4] = 250 ppm, wheat seedlings, 100 = 100% disease control, 0 = no control
[5] = 250 ppm, soybean seedlings, 100 = 100% disease control, 0 = no control
[6] = 150 ppm, 100 = 100% disease control, 0 = no control
[7] = 150 ppm, wheat seedlings, 100 = 100% disease control, 0 = no control

Row | Structure (SMILES) | Test F disease control rating (Phytophthora infestans; [3]) | Test C disease control rating (Zymoseptoria tritici; [4]) | Test E disease control rating (Botrytis cinerea; [3]) | Test B disease control rating [1, 4] | Test G disease control rating [2, 3] | Test D disease control rating (Plasmopara viticola; [3]) | Test A disease control rating (Phakopsora pachyrhizi; [5]) | also measured
1 | COc1ccnc(C(=O)NC(C)C(=O)OC(C(C)C)C2CCCCC2)c1O (mixture of isomers) [Compound 63] | 0% | 79% | 16% | 99% | 0% | 81% | 100% | 
2 | COc1ccnc(C(=O)N[C@@H](C)C(=O)OC(C)c2ccc(-n3ccc(C(F)(F)F)n3)cc2Cc2ccccc2)c1OC(C)=O (stereo partly drawn) [Compound 94] | 0% | 82% | 0% | 92% | 0% | 10% | 38% | 
3 | COc1ccnc(C(=O)NC(C)C(=O)OC(C)c2ccccc2C(F)(F)F)c1O (mixture of isomers) [Compound 17] |  |  |  |  |  |  |  | Test F disease control rating (Phytophthora infestans; [6]): 0%; Test C disease control rating (Zymoseptoria tritici; [7]): 92%; Test E disease control rating (Botrytis cinerea; [6]): 0%; Test B disease control rating [1, 7]: 41%; Test G disease control rating [2, 6]: 0%; Test D disease control rating (Plasmopara viticola; [6]): 23%; Test A disease control rating (Phakopsora pachyrhizi; 150 ppm, soybean seedlings, 100 = 100% disease control, 0 = no control): 66%
4 | COc1ccnc(C(=O)NC(C)C(=O)OC(C)c2cccc(C3CC3)c2)c1O (mixture of isomers) [Compound 158] | 0% | 73% | 0% | 100% | 0% | 94% | 100% | 
5 | COc1ccnc(C(=O)NC(C)C(=O)OC(C)C2Cc3ccccc3O2)c1O (mixture of isomers) [Compound 187] |  |  |  |  |  |  |  | Test F disease control rating (100 = 100% disease control, 0 = no disease control) (Phytophthora infestans): 0%; Test C disease control rating (100 = 100% disease control, 0 = no disease control) (Zymoseptoria tritici): 96%; Test E disease control rating (100 = 100% disease control, 0 = no disease control) (Botrytis cinerea): 0%; Test B disease control rating (100 = 100% disease control, 0 = no disease control) [1]: 100%; Test G disease control rating (100 = 100% disease control, 0 = no disease control) [2]: 0%; Test D disease control rating (100 = 100% disease control, 0 = no disease control) (Plasmopara viticola): 6%; Test A disease control rating (100 = 100% disease control, 0 = no disease control) (Phakopsora pachyrhizi): 97%
6 | COc1ccnc(C(=O)NC(C)C(=O)OC(C)c2ccc(C3CCCCC3)cc2)c1OS(C)(=O)=O (mixture of isomers) [Compound 156] | 17% | 13% | 0% | 68% | 0% | 7% | 89% | 
7 | CC(NC(=O)c1cccc(NC=O)c1O)C(=O)OC(C)c1ccc(C2CCCCC2)cc1 (mixture of isomers) [Compound 97] | 99% | 99% | 0% | 92% | 0% | 100% | 98% | 
8 | COc1ccnc(C(=O)NC(C)C(=O)OC(C)c2ccc(Br)s2)c1OC(C)=O (mixture of isomers) [Compound 67] | 0% | 36% | 0% | 55% | 0% | 53% | 13% | 
9 | COc1ccnc(C(=O)NC(C)C(=O)OC(C)c2ccncc2)c1O (racemic) [Compound 14] |  |  |  |  |  |  |  | pest or weed control at 250 ppm (Phytophthora infestans; Phytophthora infestans, in Solanum lycopersicum, read-out: Test F disease control rating, 250 ppm, 100 = 100% disease control, 0 = no control): 0%; pest or weed control at 250 ppm (Zymoseptoria tritici; Zymoseptoria tritici, 250 ppm, wheat seedlings, 100 = 100% disease control, 0 = no control, read-out: Test C disease control rating): 12%; pest or weed control at 250 ppm (Botrytis cinerea; Botrytis cinerea, 250 ppm, 100 = 100% disease control, 0 = no control, read-out: Test E disease control rating): 0%; pest or weed control at 250 ppm ([1]; Puccinia recondita, 250 ppm, wheat seedlings, 100 = 100% disease control, 0 = no control, read-out: Test B disease control rating): 0%; pest or weed control at 250 ppm ([2]; Blumeria graminis, 250 ppm, 100 = 100% disease control, 0 = no control, read-out: Test G disease control rating): 0%; pest or weed control at 250 ppm (Plasmopara viticola; Plasmopara viticola, 250 ppm, 100 = 100% disease control, 0 = no control, read-out: Test D disease control rating): 48%; pest or weed control at 250 ppm (Phakopsora pachyrhizi; Phakopsora pachyrhizi, 250 ppm, soybean seedlings, 100 = 100% disease control, 0 = no control, read-out: Test A disease control rating): 0%
10 | COc1ccnc(C(=O)NC(C)C(=O)OC(C)c2ccccc2-n2ccc(C(F)(F)F)n2)c1OC(C)=O (mixture of isomers) [Compound 25] | 0% | 17% | 0% | 0% | 0% | 41% | 97% | 
11 | COc1ccnc2c(=O)n([C@@H](C)C(=O)OC(C)c3ccc(C4CCCCC4)cc3)c(=O)oc12 (single isomer, unassigned) [Compound 194] |  |  |  |  |  |  |  | Test F disease control rating (100 = 100% disease control, 0 = no disease control) (Phytophthora infestans): 0%; Test C disease control rating (100 = 100% disease control, 0 = no disease control) (Zymoseptoria tritici): 37%; Test E disease control rating (100 = 100% disease control, 0 = no disease control) (Botrytis cinerea): 0%; Test B disease control rating (100 = 100% disease control, 0 = no disease control) [1]: 68%; Test G disease control rating (100 = 100% disease control, 0 = no disease control) [2]: 0%; Test D disease control rating (100 = 100% disease control, 0 = no disease control) (Plasmopara viticola): 18%; Test A disease control rating (100 = 100% disease control, 0 = no disease control) (Phakopsora pachyrhizi): 87%
12 | CCC(OC(=O)[C@H](C)NC(=O)c1nccc(OC)c1OCOC(=O)C(C)C)C1CCCCC1 (single isomer, unassigned) [Compound 188] |  |  |  |  |  |  |  | Test F disease control rating (100 = 100% disease control, 0 = no disease control) (Phytophthora infestans): 0%; Test C disease control rating (100 = 100% disease control, 0 = no disease control) (Zymoseptoria tritici): 27%; Test E disease control rating (100 = 100% disease control, 0 = no disease control) (Botrytis cinerea): 0%; Test B disease control rating (100 = 100% disease control, 0 = no disease control) [1]: 68%; Test G disease control rating (100 = 100% disease control, 0 = no disease control) [2]: 0%; Test D disease control rating (100 = 100% disease control, 0 = no disease control) (Plasmopara viticola): 43%; Test A disease control rating (100 = 100% disease control, 0 = no disease control) (Phakopsora pachyrhizi): 100%
13 | COc1ccnc(C(=O)NC(C)C(=O)OC(C)c2ccc(-n3ccc(C(F)(F)F)n3)cc2-n2ccc(C(F)(F)F)n2)c1O (mixture of isomers) [Compound 89] | 0% | 0% | 0% | 0% | 0% | 16% | 0% | 
14 | COc1ccnc(C(=O)N[C@@H](C)C(=O)OC(C(C)C)C2CCCCC2)c1OC(C)=O (mixture of isomers) [Compound 62, N-[[3-(acetyloxy)-4-methoxy-2-pyridinyl]carbonyl]-L-alanine 1-cyclohexyl-2-methylpropyl ester] |  |  |  |  |  |  |  | pest or weed control at 50 ppm (Phytophthora infestans; Phytophthora infestans, in Solanum lycopersicum, read-out: Test F disease control rating, 50 ppm, 100 = 100% disease control, 0 = no control): 0%; pest or weed control at 50 ppm (Zymoseptoria tritici; Zymoseptoria tritici, 50 ppm, wheat seedlings, 100 = 100% disease control, 0 = no control, read-out: Test C disease control rating): 14%; pest or weed control at 50 ppm (Botrytis cinerea; Botrytis cinerea, 50 ppm, 100 = 100% disease control, 0 = no control, read-out: Test E disease control rating): 0%; pest or weed control at 50 ppm ([1]; Puccinia recondita, 50 ppm, wheat seedlings, 100 = 100% disease control, 0 = no control, read-out: Test B disease control rating): 93%; pest or weed control at 50 ppm ([2]; Blumeria graminis, 50 ppm, 100 = 100% disease control, 0 = no control, read-out: Test G disease control rating): 0%; pest or weed control at 50 ppm (Plasmopara viticola; Plasmopara viticola, 50 ppm, 100 = 100% disease control, 0 = no control, read-out: Test D disease control rating): 74%; pest or weed control at 50 ppm (Phakopsora pachyrhizi; Phakopsora pachyrhizi, 50 ppm, soybean seedlings, 100 = 100% disease control, 0 = no control, read-out: Test A disease control rating): 100%
15 | CCC(OC(=O)[C@H](C)NC(=O)c1nccc(OC)c1OCOC(C)=O)C1CCCCC1 (single isomer, unassigned) [Compound 189] |  |  |  |  |  |  |  | Test F disease control rating (100 = 100% disease control, 0 = no disease control) (Phytophthora infestans): 0%; Test C disease control rating (100 = 100% disease control, 0 = no disease control) (Zymoseptoria tritici): 98%; Test E disease control rating (100 = 100% disease control, 0 = no disease control) (Botrytis cinerea): 0%; Test B disease control rating (100 = 100% disease control, 0 = no disease control) [1]: 100%; Test G disease control rating (100 = 100% disease control, 0 = no disease control) [2]: 26%; Test D disease control rating (100 = 100% disease control, 0 = no disease control) (Plasmopara viticola): 46%; Test A disease control rating (100 = 100% disease control, 0 = no disease control) (Phakopsora pachyrhizi): 100%
